In patent US12673038B2, “Antimycotic methoxyflavone and fluconazole combination for inhibiting cryptococcus” (Karl-Franzens-Universität Graz, priority 2019, dated 2026):

Tested on: C. albicans
Experiment: In vitro antifungal activity of flavone in combination with azoles, growth via OD490
Assay type: cell-based, Candida albicans
Settings: OD490, flavone plus azole vs each alone

Structure (SMILES) | enhancement of the antifungal activity of azoles in the presence of the flavone
COc1ccc2c(=O)cc(-c3ccccc3)oc2c1 [7-MF, 7-methoxyflavone] | enhancement of the antifungal activity
COc1cc(-c2cc(=O)c3c(OC)c(OC)c(OC)cc3o2)cc(OC)c1OC [3′,4′,5′,5,6,7-HMF, 3′,4′,5′,5,6,7-hexymethoxyflaovne] | enhancement of the antifungal activity
O=c1cc(-c2ccccc2)oc2ccc3ccccc3c12 [5,6-BF, 5,6-benzoflavone] | enhancement of the antifungal activity
O=c1cc(-c2ccccc2)oc2c1ccc1ccccc12 [7,8-BF, 7,8-benzoflavone] | enhancement of the antifungal activity
COc1ccccc1-c1cc(=O)c2ccccc2o1 [2′-MF, 2′-methoxyflavone] | enhancement of the antifungal activity
COc1cc(OC)c2c(=O)cc(-c3ccc(OC)c(OC)c3)oc2c1 [3′,4′,5,7-TMF, 3′,4′,5,7-tetrametoxyflavone] | enhancement of the antifungal activity

Tested on: fungi including Aspergillus and Fusarium species
Experiment: not given
Settings: Weidenbörner et al., Mycol. Res. 101 (1997); cited from earlier work

Structure (SMILES) | antifungal effect
O=c1cc(-c2ccccc2)oc2ccccc12 [flavone] | displays an antifungal effect
